Results from patent US10722505B2, “Substituted 2,4 diamino-quinoline as new anticancer agents” (GENOSCIENCE PHARMA, priority 2014, dated 2020).
Structures can show the parent of a compound that is named as a salt.

Tests used:
Assay type in all cases: cell-based
[1] = tested on: CPP45 liver metastatic CRC patient-derived cells; assay: CellTiter-Glo growth inhibition, liver metastatic CRC patient-derived cells CPP45; conditions: Homo sapiens; CPP45, 72 h
From the text: (§1) Patient derived liver metastasis cells (CPP19, 30, 36 and CPP45—see table 1 for clinical descriptions) were maintained in complete DMEM (Gibco) with 10% FBS. Cells were obtained from biopsies provided by CHU-Caremeau (Nimes, France) within an approved protocol. Signed informed consents were obtained from patients prior to samples acquisition in accordance with all ethical and legal aspects. Tumors were washed, minced into fragments (<2 mm^3) and digested with liberase H (0.26 U/mL, Roche) resuspended in Accumax (Sigma-Aldrich). After 2 hours at 37° C., cell suspension was filtered through a […] to obtain a single cell suspension and plated in DMEM medium, supplemented with FBS, glutamine, antibiotics and non-essential aminoacids. When a monolayer of patient-derived tumor cells was formed, cells were detached using trypsin/EDTA and resuspended in DMEM with 10% FBS (for adherent cells) or defined M11 media (for sphere formation). Cells were cultured in a humidified atmosphere at 37° C. and 5% CO2.
(§2) Cells were plated at 10^4 cells per well in P96 well plates in DMEM with 10% FBS. After 24 hours, cells were treated with compound 2-3 and cell viability was assessed 72 h post-treatment by CellTiter-Glo® Luminescent Cell Viability Assay (Promega). EC50 were calculated using GraphPad Prism Software v6 (Graphpad Software, Inc La Jolla, Calif.). […]

[2] = tested on: CPP19 liver metastatic CRC patient-derived cells; assay: CellTiter-Glo growth inhibition, liver metastatic CRC patient-derived cells CPP19; conditions: Homo sapiens; CPP19, 72 h
From the text: as §1, §2

[3] = tested on: CPP30 liver metastatic CRC patient-derived cells; assay: CellTiter-Glo growth inhibition, liver metastatic CRC patient-derived cells CPP30; conditions: Homo sapiens; CPP30, 72 h
From the text: as §1, §2

[4] = tested on: HCT-116 cell line; assay: CellTiter-Glo growth inhibition assay, HCT-116; conditions: Homo sapiens; HCT-116, colorectal carcinoma, 72 h
Description: (§3) All cell lines were maintained in medium containing 1% penicillin-streptomycin (Dutscher, P06-07100) and 10% Fetal Bovine Serum (Gibco, W3387L) except 20% for KG-1 cell line and PBMC, and cultured at 37° C. with 5% CO2.
HepG2, Huh7, HCT-116, MDA-MB-231 and A375 cell lines were cultured in Dulbecco's modified Eagle's medium (Dutscher, L0103).
(§4) Cell viability was measured using the CellTiter-Glo® luminescent cell viability assay as described by the manufacturer (Promega, Ref G7571) using an Infinite F200Pro luminometer (Tecan). Briefly, for adherent cells, cells were plated onto 96-well plates (white with clear bottom) in 90 μL of media per well and were allowed to grow overnight before the assay. For cells growing in suspension, cells were plated onto 96-well plates immediately before the assay.
(§5) Compounds were added at different concentrations to each well, and cell cultures were incubated for 72 h. Vehicle (H2O) was used as a control, and all compounds were tested in a constant percentage of H2O. After addition of 100 μL of CellTiter-Glo®, luminescence was measured using an Infinite F200Pro (Tecan). EC50 values were determined as the dose of compound required to reduce luminescent values to 50% of the signal obtained for untreated cell cultures. The experimental data were analyzed using a computer program, Graphpad Prism v5 (GraphPad Software, Inc. La Jolla, Calif.). […]

[5] = tested on: KG-1 cell line; assay: CellTiter-Glo growth inhibition assay, KG-1; conditions: Homo sapiens; KG-1, acute myelogenous leukemia, 72 h
Description: as §3
KG-1 and MV4-11 cell line were maintained in Iscove's modified Dulbecco's medium (Dutscher, L0190).
as §4, §5

[6] = tested on: 786-O cell line; assay: CellTiter-Glo growth inhibition assay, 786-O; conditions: Homo sapiens, 786-0, 72 h
Description: CAKI-1 and 786-0 cell lines were maintained in RPMI 1640 medium (Dutscher, L0498) containing 1% penicillin-streptomycin (Dutscher, P06-07100) and 10% Fetal Bovine Serum (Gibco, W3387L) and cultured at 37° C. with 5% CO2.
as §4, with “Briefly,” for “Briefly, for adherent cells,”, “assay.” for “assay. For cells growing in suspension, cells were plated onto 96-well plates immediately before the assay.”
Compounds 2-3 and two reference compounds (Sorafenib and Sunitinib) were added at different concentrations to each well, and cell cultures were incubated for 72 h. For compound 2-3 analysis, H2O was used as a negative control (=untreated) and all concentrations were tested in a constant percentage of H2O. For Sorafenib and Sunitinib analysis, DMSO was used as a negative control (=untreated) and all concentrations were tested in a constant percentage of DMSO. 72 h after incubation of compounds, 100 μL of CellTiter-Glo® were added to each well and luminescence was measured using an Infinite F200Pro (Tecan). EC50 values were determined as the dose of compound required to reduce luminescent values to 50% of the signal obtained for untreated cell cultures. The experimental data were analyzed using a computer program, Graphpad Prism v5 (GraphPad Software, Inc. La Jolla, Calif.). All experiments were at least done in triplicate and repeated at least three independent times.

[7] = tested on: Hep3B-Luc cell line; assay: CellTiter-Glo growth inhibition assay, Hep3B-Luc; conditions: Homo sapiens, Hep 3B-Luc, 72 h
Description: Before compound treatment, the compound was dissolved in H2O to make a 10 mM stock solution. The working solutions (5 folds final concentrations) were then prepared with MEM medium (Gibco, 1128319) containing 10% Fetal Bovine Serum (Gibco, 10099141).
Hep3B-Luc cell line (luciferase transfected human liver carcinoma cell line for orthotopic tumor model) was cultured in MEM Medium supplemented with 10% v/v Fetal Bovine Serum (FBS), 1% Penicillin-Streptomycin and maintained at 37° C. with 5% CO2. 800 cells were plated onto 384-well flat clear bottom white (Corning, 3707).
Cells in log-phase are collected and counted. Cell suspensions are added to each well of 384-well plate at 800 cells per well (total volume 40 μl). The margin wells are filled with PBS buffer. Test compound at various concentrations are added in duplicates (add 10 μl 5× compound solutions to the plate). The assay plate is incubated for 72 h in 37° C./5% CO2 incubator. Cell viability was measured using the CellTiter-Glo® luminescent cell viability assay as described by the manufacturer (Promega, Ref G7571). After addition of 100 μL of CellTiter-Glo® reactifs solution, luminescence was measured using a PHERAstar Plus luminometer. Data were recorded by PHERAstar Plus, Data acquisition and analysis were performed using Microsoft Excel program and GraphPad Prism v.6 software.

SMILES: CC(C)(C)NC1CCN(c2cc(NCc3ccc(Cl)cc3)nc3ccccc23)CC1 [Compound 2-3, 2-(4-chlorobenzylamino)-4-(4-tert-butylaminopiperidin-1-yl)-quinoline hydrochloride salt]
- EC50 [1]: 1120 nM
- EC50 [2]: 1880 nM
- EC50 [3]: 1220 nM
- EC50 [4]: 1600 nM
- EC50 [5]: 5100 nM
- EC50 [6]: 2100 nM
- EC50 [7]: 1100 nM
